The subject of assay [1] is LDL receptor expression. Put plainly: Northern blotting of LDL receptor mRNA in HepG2 cells. Type of assay: cell-based, human. Particulars: HepG2 cells; for effect on SB202190-induced LDL receptor expression: inhibitor added 30 min before SB202190 (2.5 μM, 4 h); for induction of LDL receptor expression (Northern blotting): inhibitor alone, 0.5% FBS. The protocol:
5×10^5 cells were plated on day 0. On day 2, cells were refed with fresh medium. On day. 4, cells were either left untreated (0) or treated for the indicated times with SB202190 (2.5 μM) in medium containing 0.5% FBS. Total RNA was isolated and subjected to Northern blotting to determine amounts of LDL receptor, squalene synthase (SS) genes, and actin mRNAs. Autoradiographs were quantitated densitometrically. LDL receptor mRNA levels were normalized to actin mRNA levels. In the bottom panel, results are expressed as the fold induction by SB 202190 as compared with uninduced cells (set at 1). Values obtained are the averages of three separate experiments, with the standard deviations shown.
HepG2 cells were grown as described in FIG. 1. On day 4, medium was changed to either 10% LPDS alone or 10% LPDS supplemented with 25-hydroxycholesterol (2 μg/ml) and cholesterol (10 μg/ml), and after 2 hours, cells were treated with indicated concentrations of SB202190 for an additional 4 hours. Levels of LDL receptor and SS mRNAs were determined by Northern analysis and densitometry as described previously. RNA levels were normalized by comparison with levels of actin. Values obtained from cells cultured in the absence of sterols and SB202190 were set at 1. Values shown are the average of two different experiments.
Total RNA was subjected to Northern blot analysis, and the filter was hybridized with a ^32P-labeled LDL receptor probe. Values shown are the averages of two different experiments. […] Values obtained from the control cells grown in the absence of SB202190 or PD98059 were arbitrarily set at 1.
HepG2 cells were grown as described in FIG. 1. On day 4, cells cultured for 1 h in 0.5% FBS containing different amounts of cycloheximide (1 μg/ml, 2 μg/ml, and 5 μg/ml) were then incubated with SB202190 (2.5 μM) for an additional 4 h. LDL receptor and actin mRNA levels were analyzed by Northern blotting of total RNA. Values obtained from cells with no additions were arbitrarily set at 1. […] Results shown are representative of one experiment.
In FIG. 8A, HepG2 cells were pretreated for 30 minutes with the indicated concentration of the above inhibitors and then treated with […] SB202190 for an additional 4 hours. Total RNA was subjected to Northern blotting for measurement of LDL receptor mRNA levels.
(§1) Human hepatoma cell line HepG2 and its derivative HepG2-ΔRaf-1:ER cell line that stably expresses the ΔRaf-1:ER chimera were maintained as monolayer cultures in a humidified 5% CO2 atmosphere at 37° C. in Eagle's minimum essential medium (EMEM) (Bio Whittaker, Md.) supplemented with 10% fetal bovine serum (FBS) (Life Technologies Inc.), 2 mM L-glutamine, 20 units/ml penicillin and 20 μg/ml streptomycin sulphate.
Total RNA was isolated using TRIzol, and Northern blotting was done essentially as described earlier (43, 44). Briefly, 20 μg total cellular RNA was fractionated on 1% formaldehyde agarose gel and transferred to Zeta Probe membrane by capillary blotting. RNA blots were hybridized with LDL receptor and squalene synthase specific single-stranded M13 probes labeled with [α-^32P ]dCTP. Hybridized filters were washed and exposed to Kodak X-ray film. The relative intensities of specific bands were determined densitometrically within the linear range of the film on a model 300A laser densitometer (Molecular Dyanamics, Calif.) with Image Quant software. LDL receptor mRNA was normalized to squalene synthase (SS) (included in this study) or to α-actin (data not shown) mRNA level, and data for each point were plotted as the percentage of LDL receptor mRNA as compared to controls. […]

Assay [2] has as its system p38^MAPK. Put plainly: p38MAPK activation by stress-inducers in HepG2-ΔRaf-1:ER cells. Format: cell-based, human. The following applies: 1 μM ICI 182,780 1.5 h, then anisomycin (50 ng/ml) or IL-1β (5 ng/ml) 30 min. The protocol: (§2) Cells were either left untreated or stimulated with 1 μM ICI 182,780 for 1.5 h, and then treated with either anisomycin (50 ng/ml) or IL-1β(5 ng/ml) for 30 min. Cells were then lysed in SDS sample buffer, and equal amounts of whole cell lysates were separated by SDS-PAGE in 10% gels. Activated MAPKs levels were analyzed by blotting using anti-phospho-p42/44^MAPK, and anti-phospho-p38^MAPK. Protein levels were analyzed by using phosphorylation-independent anti-p42/44^MAPK following electrotransfer of total proteins onto nitrocellulose. Similar results were obtained in three separate experiments. […]
(§3) Proteins were fractionated by SDS-PAGE with an 10% acrylamide separation gel, and the separated proteins were transferred to nitrocellulose, and processed as described previously (43, 44). […] After further washing in Tris/NaCl/Tween-20, membranes were incubated for 1 h with horseradish peroxidase-linked anti-IgG secondary antibody (Bio-Rad, diluted 1:5000), and immunoreactive proteins were detected by ECL as described by the supplier. Quantitative analyses of protein levels were performed by densitometric scanning of the autoradiograms, and are representative of 3 or more independent experiments.
(§4) Whether inhibition or activation of p42/44^MAPK regulates p38^MAPK activation by stress-inducers was determined next. […]

The test system of assay [3] is p42/44^MAPK. Put plainly: p42/44MAPK activation in HepG2-ΔRaf-1:ER cells. Format: cell-based, human. The following applies: 1 μM ICI 182,780. The procedure: as §2, §3, §4
Assay [4] concerns p38^MAPK. The following applies: concentrations that completely blocked p42/44MAPK activation by MEK-1/2; cited from earlier work.
In assay [5] the test system is other MAPKs. Description: Activity of other MAPKs on inhibition of p42/44MAPK. Type of assay: cell-based. Particulars: inhibition of p42/44MAPK with PD98059; data not shown.
The test system of assay [6] is LDL receptor expression. Description: Northern blotting of LDL receptor mRNA in HeLa cells. Type of assay: cell-based. The following applies: PD98059 (5 μM) added 30 min before SB202190 (2.5 μM) 4 h. The procedure: PD98059 was added 30 min prior to addition of SB202190. After the indicated times, total RNA was isolated and subjected to Northern blotting. […] Total RNA was isolated using TRIzol, and Northern blotting was done essentially as described earlier (43, 44). Briefly, 20 μg total cellular RNA was fractionated on 1% formaldehyde agarose gel and transferred to Zeta Probe membrane by capillary blotting. RNA blots were hybridized with LDL receptor and squalene synthase specific single-stranded M13 probes labeled with [α-^32P ]dCTP. Hybridized filters were washed and exposed to Kodak X-ray film. The relative intensities of specific bands were determined densitometrically within the linear range of the film on a model 300A laser densitometer (Molecular […], Calif.) with Image Quant software. LDL receptor mRNA was normalized to squalene synthase (SS) (included in this study) or to α-actin (data not shown) mRNA level, and data for each point were plotted as the percentage of LDL receptor mRNA as compared to controls.

Assay [7] has as its system p42/44^MAPK. Description: Immunoblot of phospho-p42/44MAPK in HepG2 cells. Type of assay: cell-based, human. Particulars: inhibitor added 30 min before SB202190 (2.5 μM, 4 h). The protocol: (§5) 2×10^5 cells were grown and treated as described in FIG. 1. After the indicated times, equal amounts of cell lysates were blotted with anti-phospho-p42/44^MAPK antibody, phosphorylation-independent p42/44^MAPK antibody, anti-phospho p46/54^JNK antibody, anti-phospho-MEK-1/2, or phosphorylation-independent MKP-1.
HepG2 cells were cultured in the absence or presence of 1 μM staurosporine or 5 μM PD98059 for 30 min. SB202190 (2.5 μM) was then added to the cells for 4 h, cell lysate was subjected to immunoblotting to measure the phosphorylation levels of p42/44^MAPK and MEK-1/2.
as §1
Proteins were fractionated by SDS-PAGE with an 10% acrylamide separation gel, and the separated proteins were transferred to nitrocellulose, and processed as described previously (43, 44). Briefly, membranes were incubated in 20 mM Tris-HCl, pH 7.6, 137 mM NaCl, 0.2% v/v Tween-20 (Tris/NaCl/Tween-20) with 5% w/v non-fat dried milk for 1 h, washed in Tris/NaCl/Tween-20 (3×5 min), and incubated for 1 h with primary antibody in Tris/NaCl/Tween-20 containing 1% milk at room temperature for non phospho-specific antibodies and overnight at 4° C. for phospho-specific antibodies. The following dilutions were used for individual antibodies against different proteins: p42/44^MAPK (1:1600); phosphop-42/44^MAPK (1:1000); phosphop-46/54^JNK (1:1000); phospho-p38^MAPK (1:1600); phospho-MEK-1/2 (1:1000); MKP-1 (1:1500). After further washing in Tris/NaCl/Tween-20, membranes were incubated for 1 h with horseradish peroxidase-linked anti-IgG secondary antibody (Bio-Rad, diluted 1:5000), and immunoreactive proteins were detected by ECL as described by the supplier. Quantitative analyses of protein levels were performed by densitometric scanning of the autoradiograms, and are representative of 3 or more independent experiments.
HepG2 cells were incubated with SB202190, and the activity of p42/44^MAPK and p46/54^JNK was determined by immunoblot analysis with antibodies that recognized the activated phosphorylated forms of these kinases in cell extracts obtained at different times.
(A western blot detects proteins with antibodies after separation by electrophoresis.)

In assay [8] the test system is p38^MAPK α- and β-isoforms. The following applies: cited from earlier work.
In assay [9] the test system is MEK-1/2. Description: Immunoblot of phospho-MEK-1/2 in HepG2 cells. Format: cell-based, human. Particulars: 1 μM staurosporine 30 min, then SB202190 (2.5 μM) 4 h. The procedure: as §5
HepG2 cells were cultured in the absence or presence of 1 μM staurosporine or 5 μM PD98059 for 30 min. SB202190 (2.5 μM) was then added to the cells for 4 h, cell lysate was subjected to immunoblotting to measure the phosphorylation levels of p42/44^MAPK and MEK-1/2. […]
as §3

In the case of `CN(C)CCCn1cc(C2=C(c3c[nH]c4ccccc34)C(=O)NC2=O)c2ccccc21` [Bis I], the “effect on SB202190-induced LDL receptor expression” value in assay [1] is “has no effect”.
Same read-out and setting: next, `Cn1c2ccccc2c2c3c(c4c5ccccc5n(CCC#N)c4c21)CNC3=O` [Go6976]: “has no effect”.
For `C[C@]12CC[C@@H]3c4ccc(O)cc4C[C@@H](CCCCCCCCC[S+]([O-])CCCC(F)(F)C(F)(F)F)[C@H]3[C@@H]1CC[C@@H]2O` (stereo partly shown) [ICI 182780], in assay [2], the “effect on p38MAPK activation by anisomycin or IL-1β” value is “no significant effects”. In addition, the “stimulation of p42/44MAPK” value in assay [3] is reported as “stimulated p42/44^MAPK within minutes”.
Turning to `COc1cccc(-c2cc(=O)c3ccccc3o2)c1N` [PD98059, 2-(2′-amino-3′-methoxyphenyl) oxanaphthalen-4-one], the “effect on p38MAPK activation in response to IL-1β or TNF” value in assay [4] is recorded as “failed to block p38^MAPK activation”. For the same compound, in assay [5], the “effect on activity of other MAPKs” value was “has no effect on activity of other MAPKs”. In assay [6], the “effect on SB202190-induced LDL receptor expression in HeLa cells” value is “blocked SB202190-induced LDL receptor expression”. The “effect on SB202190-induced p42/44MAPK phosphorylation/activation” value in [7] is listed as “inhibited”. Further, the “effect on SB202190-induced LDL receptor expression” value in assay [1] is on record as “inhibited”.
Consider `CCc1nc(-c2ccc(OC)cc2)[nH]c1-c1ccncc1` [SB202474], for which the “induction of LDL receptor expression (Northern blotting)” value in [1] is listed as “did not induce LDL receptor expression”.
For `C[S+]([O-])c1ccc(-c2nc(-c3ccc(F)cc3)c(-c3ccncc3)[nH]2)cc1` (stereo not shown) [SB203580, 4-(4-Fluorophenyl)-2-(4-methylsulfinylphenyl)-5-(4-pyridyl) 1H-imidazole], in assay [8], the “inhibition of p38MAPK α- and β-isoforms” value is “selectively inhibit both p38^MAPK α- and β-isoforms”. Further, in [1], the “most effective concentration for LDL receptor induction” value was 10 µM and the “induction of LDL receptor expression (Northern blotting)” value is recorded as “also induced LDL receptor expression”.
Take `C[C@@H]1C[C@@H]([C@H](O)CC2CC(=O)NC(=O)C2)C(=O)[C@@H](C)C1` [cycloheximide]: the “effect of inhibition of translation on SB202190-induced LDL receptor expression” value in assay [1] (cycloheximide 1, 2, 5 μg/ml for 1 h, then SB202190 (2.5 μM) 4 h) is “no effect on LDL receptor expression”.
As for `COc1ccc2c(c1)c(CC(=O)O)c(C)n2C(=O)c1ccc(Cl)cc1` [indomethacin], the “effect on LDL receptor expression” value in assay [1] (10 μM indomethacin) is “did not significantly alter LDL receptor expression”.
Take `CN[C@@H]1C[C@H]2O[C@@](C)([C@@H]1OC)n1c3ccccc3c3c4c(c5c6ccccc6n2c5c31)C(=O)NC4` [staurosporine]: in assay [7], the “effect on SB202190-induced p42/44MAPK phosphorylation/activation” value is “blocked”. In addition, in assay [1], the “effect on SB202190-induced LDL receptor expression” value is given as “completely prevented”. Moreover, in assay [9], the “effect on SB202190-induced MEK-1/2 activation” value is recorded as “blocked”.
With calphostin C, the “effect on SB202190-induced LDL receptor expression” value in [1] is recorded as “has no effect”.

Source of the values: patent publication US6602896B1, “p38MAPK inhibitor and uses thereof” (The Board of Trustees of the University of Arkansas, priority 1999, dated 2003).
